According to the NIST ThermoML archive (doi:10.1016/j.jct.2008.02.020):
Numbers after ± are expanded uncertainties.

Conditions: Liquid, Buoyancy - hydrostatic balance with magnetic suspension - one sinker

CCCCCCCCC [nonane]
Conditions | mass density [kg/m3]
233.15 K, 101.46 kPa | 763.962 ± 0.24
233.15 K, 1176.1 kPa | 764.563 ± 0.24
233.15 K, 2178.2 kPa | 765.126 ± 0.24
233.15 K, 4167 kPa | 766.231 ± 0.24
233.15 K, 5936.5 kPa | 767.203 ± 0.24
233.15 K, 8144.5 kPa | 768.395 ± 0.24
233.15 K, 10066 kPa | 769.42 ± 0.24
233.15 K, 12148 kPa | 770.516 ± 0.25
233.15 K, 14076 kPa | 771.516 ± 0.25
233.15 K, 16087 kPa | 772.548 ± 0.25
233.15 K, 18067 kPa | 773.551 ± 0.25
233.15 K, 19984 kPa | 774.511 ± 0.25
233.15 K, 21990 kPa | 775.502 ± 0.25
233.15 K, 24044 kPa | 776.506 ± 0.25
233.15 K, 25990 kPa | 777.446 ± 0.25
233.15 K, 27927 kPa | 778.373 ± 0.25
233.15 K, 29906 kPa | 779.308 ± 0.25
253.15 K, 101.82 kPa | 748.678 ± 0.24
253.15 K, 1135.3 kPa | 749.335 ± 0.24
253.15 K, 2178.6 kPa | 749.992 ± 0.24
253.15 K, 3967.8 kPa | 751.107 ± 0.24
253.15 K, 6147.5 kPa | 752.446 ± 0.24
253.15 K, 8138 kPa | 753.648 ± 0.24
253.15 K, 10112 kPa | 754.82 ± 0.24
253.15 K, 12111 kPa | 755.991 ± 0.24
253.15 K, 14130 kPa | 757.156 ± 0.24
253.15 K, 16140 kPa | 758.299 ± 0.24
253.15 K, 18106 kPa | 759.398 ± 0.24
253.15 K, 20064 kPa | 760.484 ± 0.24
253.15 K, 22026 kPa | 761.552 ± 0.24
253.15 K, 23955 kPa | 762.59 ± 0.24
253.15 K, 25972 kPa | 763.661 ± 0.24
253.15 K, 27913 kPa | 764.677 ± 0.24
253.15 K, 29967 kPa | 765.739 ± 0.24
273.15 K, 102.52 kPa | 733.389 ± 0.23
273.15 K, 1156.8 kPa | 734.143 ± 0.23
273.15 K, 2138 kPa | 734.842 ± 0.23
273.15 K, 4026 kPa | 736.166 ± 0.23
273.15 K, 6169.4 kPa | 737.644 ± 0.23
273.15 K, 8161.4 kPa | 738.99 ± 0.23
273.15 K, 10122 kPa | 740.29 ± 0.23
273.15 K, 12106 kPa | 741.586 ± 0.23
273.15 K, 14101 kPa | 742.864 ± 0.23
273.15 K, 16067 kPa | 744.108 ± 0.23
273.15 K, 18074 kPa | 745.354 ± 0.23
273.15 K, 20036 kPa | 746.555 ± 0.24
273.15 K, 22000 kPa | 747.737 ± 0.24
273.15 K, 23996 kPa | 748.923 ± 0.24
273.15 K, 25994 kPa | 750.093 ± 0.24
273.15 K, 27982 kPa | 751.238 ± 0.24
273.15 K, 29876 kPa | 752.316 ± 0.24
293.15 K, 101.69 kPa | 717.968 ± 0.22
293.15 K, 1184.3 kPa | 718.847 ± 0.22
293.15 K, 2129.2 kPa | 719.604 ± 0.22
293.15 K, 3960.5 kPa | 721.055 ± 0.23
293.15 K, 6115.4 kPa | 722.729 ± 0.23
293.15 K, 7981.6 kPa | 724.145 ± 0.23
293.15 K, 10015 kPa | 725.663 ± 0.23
293.15 K, 12149 kPa | 727.214 ± 0.23
293.15 K, 13981 kPa | 728.526 ± 0.23
293.15 K, 16170 kPa | 730.062 ± 0.23
293.15 K, 17943 kPa | 731.285 ± 0.23
293.15 K, 20200 kPa | 732.813 ± 0.23
293.15 K, 22156 kPa | 734.115 ± 0.23
293.15 K, 24158 kPa | 735.421 ± 0.23
293.15 K, 26136 kPa | 736.696 ± 0.23
293.15 K, 28126 kPa | 737.958 ± 0.23
293.15 K, 29978 kPa | 739.115 ± 0.23
313.15 K, 98.73 kPa | 702.339 ± 0.22
313.15 K, 1168.7 kPa | 703.323 ± 0.22
313.15 K, 2131.9 kPa | 704.205 ± 0.22
313.15 K, 3967.4 kPa | 705.852 ± 0.22
313.15 K, 6162.3 kPa | 707.777 ± 0.22
313.15 K, 8113.9 kPa | 709.449 ± 0.22
313.15 K, 10024 kPa | 711.038 ± 0.22
313.15 K, 12173 kPa | 712.791 ± 0.22
313.15 K, 14170 kPa | 714.384 ± 0.22
313.15 K, 16194 kPa | 715.964 ± 0.22
313.15 K, 17956 kPa | 717.315 ± 0.22
313.15 K, 20057 kPa | 718.889 ± 0.22
313.15 K, 22191 kPa | 720.459 ± 0.23
313.15 K, 24136 kPa | 721.862 ± 0.23
313.15 K, 26139 kPa | 723.282 ± 0.23
313.15 K, 28073 kPa | 724.629 ± 0.23
313.15 K, 29972 kPa | 725.932 ± 0.23
333.15 K, 102.84 kPa | 686.431 ± 0.21
333.15 K, 1137.5 kPa | 687.521 ± 0.21
333.15 K, 2113.9 kPa | 688.539 ± 0.21
333.15 K, 4162.7 kPa | 690.632 ± 0.21
333.15 K, 6145.3 kPa | 692.599 ± 0.21
333.15 K, 8151.9 kPa | 694.535 ± 0.21
333.15 K, 10024 kPa | 696.296 ± 0.21
333.15 K, 12114 kPa | 698.208 ± 0.22
333.15 K, 14127 kPa | 700.005 ± 0.22
333.15 K, 15989 kPa | 701.627 ± 0.22
333.15 K, 18027 kPa | 703.362 ± 0.22
333.15 K, 19954 kPa | 704.977 ± 0.22
333.15 K, 22112 kPa | 706.723 ± 0.22
333.15 K, 24080 kPa | 708.292 ± 0.22
333.15 K, 26038 kPa | 709.821 ± 0.22
333.15 K, 28054 kPa | 711.366 ± 0.22
333.15 K, 29912 kPa | 712.772 ± 0.22
353.15 K, 97.13 kPa | 671.217 ± 0.2
353.15 K, 2136.7 kPa | 672.617 ± 0.21
353.15 K, 6141.9 kPa | 677.222 ± 0.21
353.15 K, 8110.9 kPa | 679.378 ± 0.21
353.15 K, 10054 kPa | 681.439 ± 0.21
353.15 K, 12124 kPa | 683.57 ± 0.21
353.15 K, 14144 kPa | 685.589 ± 0.21
353.15 K, 15989 kPa | 687.385 ± 0.21
353.15 K, 18011 kPa | 689.305 ± 0.21
353.15 K, 20036 kPa | 691.174 ± 0.21
353.15 K, 21991 kPa | 692.938 ± 0.21
353.15 K, 23965 kPa | 694.678 ± 0.21
353.15 K, 25968 kPa | 696.403 ± 0.21
353.15 K, 27955 kPa | 698.078 ± 0.22
353.15 K, 29939 kPa | 699.718 ± 0.22
373.15 K, 102.37 kPa | 653.427 ± 0.2
373.15 K, 1227.9 kPa | 655.018 ± 0.2
373.15 K, 2148.9 kPa | 656.298 ± 0.2
373.15 K, 4131.5 kPa | 658.968 ± 0.2
373.15 K, 6127 kPa | 661.551 ± 0.2
373.15 K, 8138.8 kPa | 664.058 ± 0.2
373.15 K, 10022 kPa | 666.323 ± 0.2
373.15 K, 12112 kPa | 668.749 ± 0.2
373.15 K, 14119 kPa | 671.003 ± 0.2
373.15 K, 16134 kPa | 673.197 ± 0.21
373.15 K, 18104 kPa | 675.276 ± 0.21
373.15 K, 20078 kPa | 677.302 ± 0.21
373.15 K, 22064 kPa | 679.286 ± 0.21
373.15 K, 23988 kPa | 681.158 ± 0.21
373.15 K, 26124 kPa | 683.184 ± 0.21
373.15 K, 28010 kPa | 684.93 ± 0.21
373.15 K, 29905 kPa | 686.647 ± 0.21
